In this assay the test system is Plasmodium berghei. Nature of the assay: Luciferase/luciferin-expressing antifolate-resistant parasites were used to infect a culture of HepG2 cells that were pre-incubated with compounds. Infected hepatocytes emit light due to the luciferase reaction. Assay results are presented as the percent inhibition of light emission compared to control. […]. The conditions noted are these: sporozoite; for IC90: read-out: LUCIFERASE INFECTION ASSAY - IC90. The format is functional.

Where [1] appears, read: read-out: LUCIFERASE INFECTION ASSAY - IC50.

A word on the IC50: it is the concentration that inhibits the measured activity by half. Broadly, the IC90 is the concentration at which the effect reaches the 90% level. As to `CN(c1ccccc1)c1ccc(/C=N/NC(=O)c2ccc3c(=O)n4c(nc3c2)CCCCC4)cc1`, the IC90 was greater than 10 µM. Also, the IC50 (PBLUC_HILL_SLOPE 3.8, PBLUC_R_SQUARED 0.483, read-out: LUCIFERASE INFECTION ASSAY - IC50) amounted to 6.28 µM.
Regarding `CN(C)CCNC(=O)c1cccc(-c2cnc3ccc(-c4cccc(CO)c4)nn23)c1`, the IC90 was 1.58 µM. Where the note is “HEPG2TOX_HILL_SLOPE 0.999, HEPG2TOX_R_SQUARED 0.943, PBLUC_HILL_SLOPE 3.71, PBLUC_R_SQUARED 0.586, read-out: LUCIFERASE INFECTION ASSAY - IC50”, the IC50 was 0.873 µM.
In the case of `CCCc1cc(N2CCN(C)CC2)n2ncc(-c3ccccc3)c2n1`, the IC90 is greater than 9.84 µM. Also, the IC50 under setting [1] was 2.71 µM.
Take `CC(C)(c1ccc(Oc2ccc(NC(=O)C3CC3(C)C)cc2)cc1)c1ccc(Oc2ccc(NC(=O)C3CC3(C)C)cc2)cc1` (stereo not drawn): the IC90 is greater than 5.47 µM. Moreover, the 50% inhibitory concentration (IC50) (FFLUC_HILL_SLOPE 0.986, FFLUC_R_SQUARED 0.483, PBLUC_HILL_SLOPE 0.525, PBLUC_R_SQUARED 0.295, read-out: LUCIFERASE INFECTION ASSAY - IC50) came out at 2.36 µM.
For `Cc1ccc(/C=C2\CCc3c2nc2ccccc2c3C(=O)OCc2cccc(S(=O)(=O)N(C)C)c2)cc1`, the IC90 was greater than 10 µM. The IC50 (PBLUC_HILL_SLOPE 0.892, PBLUC_R_SQUARED 0.634, read-out: LUCIFERASE INFECTION ASSAY - IC50) was found to be 1.2 µM.
As for `CSC1=C(C#N)C(=O)NC(c2ccc(Cl)cc2Cl)S1` (stereo not drawn), the IC90 is greater than 9.96 µM. In addition, the IC50 under setting [1] was greater than 9.96 µM.
`CCOC(=O)c1sc(SC)c2c1CCc1conc1-2`: the IC90 is greater than 11.2 µM. In addition, the IC50 under setting [1] is greater than 11.2 µM.
As for `CCC(CO)Nc1ccc2ncc(-c3ccc(OC)nc3)n2n1` (stereo not drawn), the IC90 was 5.43 µM. Also, for the setting “PBLUC_HILL_SLOPE 2.84, PBLUC_R_SQUARED 0.538, read-out: LUCIFERASE INFECTION ASSAY - IC50”, the IC50 came out at 2.51 µM.
In the case of `C=CCN(C(=O)CCc1ccc(S(=O)(=O)N2CCCCCC2)cc1)c1nc2c(s1)CCCC2`, the IC90 is greater than 10 µM. Where the note is “HEPG2TOX_HILL_SLOPE 1.95, HEPG2TOX_R_SQUARED 0.844, PBLUC_HILL_SLOPE 2.62, PBLUC_R_SQUARED 0.304, read-out: LUCIFERASE INFECTION ASSAY - IC50”, the IC50 stood at 8.2 µM.
On to `COc1cc(OC)nc(Nc2nc(C(N)Cc3ccccc3)cs2)n1` (stereo not drawn), for which the IC90 came out at 7.54 µM. Also, for the setting “PBLUC_HILL_SLOPE 4.21, PBLUC_R_SQUARED 0.584, read-out: LUCIFERASE INFECTION ASSAY - IC50”, the IC50 was found to be 4.47 µM.
With `COc1ccc(-n2c(C)cc(/C=C(\C#N)C(=O)NCC(c3cccs3)N3CCOCC3)c2C)cc1` (stereo not drawn), the IC90 was greater than 10 µM. Besides, the IC50 (PBLUC_HILL_SLOPE 6.75, PBLUC_R_SQUARED 0.0585, read-out: LUCIFERASE INFECTION ASSAY - IC50) was greater than 10 µM.
As for `CCn1nnc2cc(C(=O)Nc3cc(C(F)(F)F)ccc3N(C)C)ccc21`, the IC90 turned out to be 7.74 µM. Besides, where the note is “PBLUC_HILL_SLOPE 154, PBLUC_R_SQUARED 0.344, read-out: LUCIFERASE INFECTION ASSAY - IC50”, the IC50 amounted to 7.63 µM.
Consider `N#Cc1cccc(-c2nnco2)c1`, for which the IC90 was greater than 10 µM. Also, under setting [1], the IC50 is greater than 10 µM.
For the compound `Cc1cc(C)nc(SCC(=O)N2CCN(C(=O)c3ccco3)CC2)n1`, the IC90 amounted to 3.74 µM. The half-maximal inhibitory concentration (IC50) (PBLUC_HILL_SLOPE 11.5, PBLUC_R_SQUARED 0.424, read-out: LUCIFERASE INFECTION ASSAY - IC50) came out at 3.09 µM.
In the case of `Oc1ccc(Br)cc1/C=N/NC(=S)NC1CC2CCC1C2` (stereo not drawn), the IC90 was 8.93 µM. Besides, the IC50 (HEPG2TOX_HILL_SLOPE 9.58, HEPG2TOX_R_SQUARED 0.779, PBLUC_HILL_SLOPE 13.3, PBLUC_R_SQUARED 0.143, read-out: LUCIFERASE INFECTION ASSAY - IC50) was found to be 7.57 µM.
`COC(=O)c1c(NC(=O)c2ccoc2)c2cc(NCCc3ccccc3)cnc2n1Cc1ccccc1`: the IC90 was greater than 6.67 µM. Besides, under “FFLUC_HILL_SLOPE 1.52, FFLUC_R_SQUARED 0.257, PBLUC_HILL_SLOPE 25.4, PBLUC_R_SQUARED 0.141, read-out: LUCIFERASE INFECTION ASSAY - IC50”, the IC50 is greater than 6.67 µM.
Regarding `Cc1onc(-c2c(F)cccc2Cl)c1C(=O)Nc1ccc(Sc2ccccc2)nc1Sc1ccccc1`, the IC90 is 2.15 µM. Also, the IC50 under setting [1] came out at 0.182 µM.
With `CC1CCC(C(C)C)C(OC(=O)C[n+]2cn(C)c3ccccc32)C1` (stereo not drawn), the IC90 was determined as 3.79 µM. Further, the IC50 (HEPG2TOX_HILL_SLOPE 2.1, HEPG2TOX_R_SQUARED 0.908, PBLUC_HILL_SLOPE 16.2, PBLUC_R_SQUARED 0.404, read-out: LUCIFERASE INFECTION ASSAY - IC50) was 3.31 µM.
For `Cc1[nH]c2ccc(C(=O)OC(C)C(=O)NCc3ccccc3)cc2c1C` (stereo not drawn), the IC90 turned out to be 8.96 µM. Further, the IC50 under setting [1] is 3.57 µM.
On to `c1ccc(-c2cc3c(Nc4ccccn4)nccc3[nH]2)cc1`, for which the IC90 was greater than 10 µM. Moreover, under setting [1], the IC50 is greater than 10 µM.
`N#Cc1ccccc1Sc1ccccc1C(=O)OCc1cc(=O)oc2cc(Br)ccc12`: the IC90 was greater than 10 µM. In addition, under “HEPG2TOX_HILL_SLOPE 1.78, HEPG2TOX_R_SQUARED 0.958, PBLUC_HILL_SLOPE 3.89, PBLUC_R_SQUARED 0.0824, read-out: LUCIFERASE INFECTION ASSAY - IC50”, the IC50 came out at 9.13 µM.
Consider `COc1ccc(-c2noc(CCCCCNC(=O)c3ccc(-n4cnnn4)cc3)n2)cc1`, for which the IC90 was greater than 10 µM. Further, the IC50 under setting [1] is greater than 10 µM.
As for `CNc1nc2cnc(-c3ccccc3C)cc2n1-c1cccc(F)c1`, the IC90 is greater than 10 µM. For the same compound, the IC50 under setting [1] is greater than 10 µM.
As for `Cc1nn2c(=O)cc(CSc3ccc(Cl)cc3)[nH]c2c1-c1ccccc1`, the IC90 was 1.17 µM. Further, the IC50 (FFLUC_HILL_SLOPE 20.8, FFLUC_R_SQUARED 0.612, HEPG2TOX_HILL_SLOPE 1.69, HEPG2TOX_R_SQUARED 0.683, PBLUC_HILL_SLOPE 14, PBLUC_R_SQUARED 0.557, read-out: LUCIFERASE INFECTION ASSAY - IC50) turned out to be 0.998 µM.
For the compound `CS(=O)(=O)c1ccc(-c2cnc3c(NC=O)cc(-c4ccccc4)cn23)cc1`, the IC90 was greater than 8.43 µM. The IC50 (PBLUC_HILL_SLOPE 4.26, PBLUC_R_SQUARED 0.756, read-out: LUCIFERASE INFECTION ASSAY - IC50) was 6.43 µM.
For `CC(C)(C)c1ccccc1NC(=O)CCC(=O)N1CCC(c2ccccc2)=N1`, the IC90 was greater than 10 µM. For the same compound, the IC50 under setting [1] is greater than 10 µM.
Take `COc1ccc(C)cc1CN1CCN(c2ccc(S(=O)(=O)NC(C)(C)C)cc2[N+](=O)[O-])CC1`: the IC90 is greater than 10 µM. For the same compound, for the setting “PBLUC_HILL_SLOPE 0.589, PBLUC_R_SQUARED 0.215, read-out: LUCIFERASE INFECTION ASSAY - IC50”, the IC50 is greater than 10 µM.
In the case of `c1ccc(Sc2ncnc3sccc23)nc1`, the IC90 came to 6.79 µM. Moreover, the IC50 (PBLUC_HILL_SLOPE 117, PBLUC_R_SQUARED 0.0329, read-out: LUCIFERASE INFECTION ASSAY - IC50) was 6.66 µM.
`CCOc1cccc(C(=O)Nc2c(C)cc(Br)cc2C)c1`: the IC90 is greater than 9.48 µM. In addition, the concentration for half-maximal inhibition (IC50) under setting [1] was greater than 9.48 µM.
Regarding `Cc1cccc(-c2cn3c(-c4cccc(C(=O)N5CCN(C)CC5)c4)cnc3cn2)c1C`, the IC90 came out at 3 µM. Under “PBLUC_HILL_SLOPE 16.5, PBLUC_R_SQUARED 0.755, read-out: LUCIFERASE INFECTION ASSAY - IC50”, the IC50 was determined as 2.63 µM.
Regarding `Cc1cc(NCc2cccc(C(F)(F)F)c2)nc(N)n1`, the IC90 is greater than 10 µM. Besides, the IC50 (HEPG2TOX_HILL_SLOPE 5.66, HEPG2TOX_R_SQUARED 0.531, PBLUC_HILL_SLOPE 2.77, PBLUC_R_SQUARED 0.624, read-out: LUCIFERASE INFECTION ASSAY - IC50) is 5.15 µM.
Take `Cc1cccc(OCCN(C)Cc2cc(=O)n3c([nH]c4ccccc43)c2C#N)c1`: the IC90 is 7.03 µM. For the same compound, for the setting “HEPG2TOX_HILL_SLOPE 0.204, HEPG2TOX_R_SQUARED 0.162, PBLUC_HILL_SLOPE 2.87, PBLUC_R_SQUARED 0.544, read-out: LUCIFERASE INFECTION ASSAY - IC50”, the IC50 turned out to be 3.27 µM.
Take `Cc1cn2c(/C=C/C(=O)Nc3cccc(Cl)c3N3CCOCC3)c(C)nc2s1`: the IC90 was greater than 10 µM. Further, the IC50 under setting [1] is greater than 10 µM.
For `ONC(=Nc1cccc(C(F)(F)F)c1)c1ccccc1`, the IC90 is greater than 11.8 µM. Moreover, the IC50 under setting [1] was greater than 11.8 µM.
`Clc1ccc2c(N(Cc3ccco3)Cc3cccs3)ncnc2c1`: the IC90 is greater than 10 µM. The IC50 under setting [1] is greater than 10 µM.
In the case of `COC(=O)c1ccc(CNC(=O)NCCN2c3ccccc3CCC2C)cc1` (stereo not drawn), the IC90 stood at 3.88 µM. For the setting “HEPG2TOX_HILL_SLOPE 2.63, HEPG2TOX_R_SQUARED 0.63, PBLUC_HILL_SLOPE 12, PBLUC_R_SQUARED 0.668, read-out: LUCIFERASE INFECTION ASSAY - IC50”, the IC50 stood at 3.23 µM.
As for `CC(=O)N1CCN(C(=O)CCC(=O)Nc2nc3ccccc3s2)CC1`, the IC90 is greater than 10 µM. Also, the IC50 (PBLUC_HILL_SLOPE 1.05, PBLUC_R_SQUARED 0.239, read-out: LUCIFERASE INFECTION ASSAY - IC50) is greater than 10 µM.
Turning to `COc1ccccc1N(C)S(=O)(=O)c1ccc(C(=O)NNC(=O)c2nn(C)c(=O)c3ccccc23)cc1`, the IC90 was greater than 10 µM. In addition, the IC50 (HEPG2TOX_HILL_SLOPE 7.89, HEPG2TOX_R_SQUARED 0.384, read-out: LUCIFERASE INFECTION ASSAY - IC50) was greater than 10 µM.
As to `CC(=O)Nc1ccc(Oc2ccnc3cc(Cl)ccc23)cc1`, the IC90 is greater than 10 µM. For the setting “PBLUC_HILL_SLOPE 1.43, PBLUC_R_SQUARED 0.691, read-out: LUCIFERASE INFECTION ASSAY - IC50”, the IC50 came out at 3.48 µM.

For the origin of these results see ChEMBL document CHEMBL4483862, “Open-source discovery of chemical leads for next-generation chemoprotective antimalarials” (2018).
